Patent publication US8580965B2, “Substituted sulfonamide compounds” (Gruenenthal GmbH, priority 2006, dated 2013)

What was measured:
[1] = molecular target: T1, human B1R receptor (bradykinin 1 receptor) (Homo sapiens, UniProt P46663); assay: FLIPR Ca2+ assay (Fluo-4) on CHO K1 cells stably transfected with the human B1R gene; % activation and % inhibition at 10 μM; type: cell-based; details: CHO K1 hB1R cells, Ca2+ inflow after 0.5 nM Lys-Des-Arg9-bradykinin; for inhibition at 10 µM: CHO-K1, test substance 10 μM, read-out: B1R antagonism, human [10 μM] % inhibition
T1 construct: host or cells: CHO K1 cells (hB1R cells)
T1 sequence (P46663 1-353): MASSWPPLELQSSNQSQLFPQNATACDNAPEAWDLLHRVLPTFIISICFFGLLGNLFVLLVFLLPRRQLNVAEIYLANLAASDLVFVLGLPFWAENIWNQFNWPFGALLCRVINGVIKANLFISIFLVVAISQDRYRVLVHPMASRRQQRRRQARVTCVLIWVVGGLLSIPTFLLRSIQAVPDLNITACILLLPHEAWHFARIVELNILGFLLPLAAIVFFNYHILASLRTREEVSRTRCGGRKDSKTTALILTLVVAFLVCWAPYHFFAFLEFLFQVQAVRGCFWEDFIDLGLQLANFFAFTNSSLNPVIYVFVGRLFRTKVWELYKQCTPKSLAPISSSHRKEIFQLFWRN
In short: (§1)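 CHO K1 cells stably expressing human or rat B1R, Fluo-4 loaded, read by FLIPR (peak fluorescence). Compound at 10 µM first gives % activation versus agonist; after 10 min, agonist (human: 0.5 nM Lys-Des-Arg9-bradykinin; rat: 100 nM Des-Arg9-bradykinin) gives % inhibition relative to maximal inhibition.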

[2] = molecular target: T2, B1R receptor of the rat (bradykinin 1 receptor) (Rattus norvegicus, UniProt P97583); assay: FLIPR Ca2+ assay (Fluo-4) on CHO K1 cells stably transfected with the B1R gene of the rat; % activation and % inhibition at 10 μM; type: cell-based; details: CHO K1 rB1R cells, Ca2+ inflow after 100 nM Des-Arg9-bradykinin; for inhibition at 10 µM: CHO-K1, test substance 10 μM, read-out: B1R antagonism, rat [10 μM] % inhibition
T2 construct: host or cells: CHO K1 cells (rB1R cells)
T2 sequence (P97583 1-337): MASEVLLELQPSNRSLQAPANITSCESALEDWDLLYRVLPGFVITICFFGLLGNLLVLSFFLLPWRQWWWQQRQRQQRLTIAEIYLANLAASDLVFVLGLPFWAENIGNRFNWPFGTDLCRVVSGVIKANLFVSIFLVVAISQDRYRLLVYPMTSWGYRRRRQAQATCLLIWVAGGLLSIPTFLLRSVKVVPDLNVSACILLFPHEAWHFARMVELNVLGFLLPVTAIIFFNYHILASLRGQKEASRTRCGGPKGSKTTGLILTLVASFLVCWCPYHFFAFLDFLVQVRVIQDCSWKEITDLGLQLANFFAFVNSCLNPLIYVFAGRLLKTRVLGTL
In short: as §1

inhibition at 10 µM [1] [%]	inhibition at 10 µM [2] [%]	B1R antagonism, human [10 μM] % inhibition ([1]; test substance 10 μM) [%]	B1R antagonism, rat [10 μM] % inhibition ([2]; test substance 10 μM) [%]	SMILES
-12.1	6.49	–	–	CN(CCOCC(=O)N1CCC(O)(c2ccc(Cl)cc2)CC1)S(=O)(=O)c1cc(F)cc(F)c1 [Example 93, N-(2-(2-(4-(4-chlorophenyl)-4-hydroxypiperidin-1-yl)-2-oxoethoxy)ethyl)-3,5-difluoro-N-methylphenylsulfonamide]
99	102	–	–	O=C(COCC1CCCN1S(=O)(=O)c1c(Cl)cccc1Cl)N1CCC(O)(c2ccccc2)CC1 (stereo not shown) [Example 220, 2-((1-(2,6-dichlorophenylsulfonyl)pyrrolidin-2-yl)methoxy)-1-(4-hydroxy-4-phenylpiperidin-1-yl)ethanone]
103	99.9	–	–	O=C(COCC1CCCCN1S(=O)(=O)c1c(Cl)cccc1Cl)N1CCC(O)(c2cccc(C(F)(F)F)c2)CC1 (stereo not shown) [Example 235, 2-((1-(2,6-dichlorophenylsulfonyl)piperidin-2-yl)methoxy)-1-(4-hydroxy-4-(3-(trifluoromethyl)phenyl)piperidin-1-yl)ethanone]
-1.29	33.9	–	–	CN(C1CCCCC1OCC(=O)N1CCC(O)(Cc2ccccc2)CC1)S(=O)(=O)c1ccc(Cl)c(Cl)c1 (stereo not shown) [Example 43, N-{2-[2-(4-benzyl-4-hydroxy-piperidin-1-yl)-2-oxo-ethoxy]-cyclohexyl}-3,4-dichloro-N-methyl-phenylsulfonamide]
99.8	100	–	–	O=C(COCC1Cc2ccccc2N1S(=O)(=O)c1ccc(Cl)cc1Cl)N1CCC(O)(c2cccnc2)CC1 (stereo not shown) [Example 135, 2-((1-(2,4-dichlorophenylsulfonyl)indolin-2-yl)methoxy)-1-(4-hydroxy-4-(pyridin-3-yl)piperidin-1-yl)ethanone]
89.4	104	–	–	O=C(COCC1CCCCN1S(=O)(=O)c1ccccc1C(F)(F)F)N1CCC(O)(c2ccc(Cl)c(C(F)(F)F)c2)CC1 (stereo not shown) [Example 178, 1-(4-(4-chloro-3-(trifluoromethyl)phenyl)-4-hydroxypiperidin-1-yl)-2-((1-(2-(trifluoromethyl)phenylsulfonyl)piperidin-2-yl)methoxy)ethanone]
21	25.8	–	–	O=C(COCC1CCCCN1S(=O)(=O)c1cccc(C(F)(F)F)c1)N1CCC(O)(Cc2ccccc2)CC1 (stereo not shown) [Example 65, 1-(4-benzyl-4-hydroxy-piperidin-1-yl)-2-[1-(3-trifluoromethyl-phenylsulfonyl)-piperidin-2-ylmethoxy]-ethanone]
102	98.7	–	–	COc1cc(C)c(S(=O)(=O)N2CCC(COCC(=O)N3CCC(O)(c4cccc(C(F)(F)F)c4)CC3)C2)c(C)c1 (stereo not shown) [Example 231, 1-(4-hydroxy-4-(3-(trifluoromethyl)phenyl)piperidin-1-yl)-2-((1-(4-methoxy-2,6-dimethylphenylsulfonyl)pyrrolidin-3-yl)methoxy)ethanone]
104	103	–	–	Cc1cc(C)c(S(=O)(=O)N2CCCCC2COCC(=O)N2CCC(O)(c3ccccn3)CC2)c(C)c1 (stereo not shown) [Example 94, 1-(4′-hydroxy-3′,4′,5′,6′-tetrahydro-2′H-[2,4′]bipyridinyl-1′-yl)-2-[1-(2,4,6-trimethyl-phenylsulfonyl)-piperidin-2-ylmethoxy]-ethanone]
6.18	19.4	–	–	CN(c1ccccc1OCC(=O)N1CCC(O)(Cc2ccccc2)CC1)S(=O)(=O)c1ccc(Cl)c(Cl)c1 [Example 33, N-{2-[2-(4-benzyl-4-hydroxy-piperidin-1-yl)-2-oxo-ethoxy]-phenyl}-3,4-dichloro-N-methyl-phenylsulfonamide]
5.93	40.3	–	–	O=C(COC1CCN(S(=O)(=O)c2ccccc2)C1)N1CCC(O)(c2ccccn2)CC1 (stereo not shown) [Example 34, 2-(1-phenylsulfonyl-pyrrolidin-3-yloxy)-1-(4′-hydroxy-3′,4′,5′,6′-tetrahydro-2′H-[2,4′]bipyridinyl-1′-yl)-ethanone]
104	102	–	–	COc1cc(C)c(S(=O)(=O)N2CCCC2COCC(=O)N2CCC(O)(c3ccccc3)CC2)c(C)c1 (stereo not shown) [Example 215, 1-(4-hydroxy-4-phenylpiperidin-1-yl)-2-((1-(4-methoxy-2,6-dimethylphenylsulfonyl)pyrrolidin-2-yl)methoxy)ethanone]
–	–	101.69	105.56	COc1cc(C)c(S(=O)(=O)N(C)CCOCC(=O)N2CCC(O)(c3ccccn3)CC2)c(C)c1 [Example 4, N-{2-[2-(4′-hydroxy-3′,4′,5′,6-tetrahydro-2′H-[2,4′]bipyridinyl-1′-yl)-2-oxo-ethoxy]-ethyl}-4-methoxy-2,6,N-trimethyl-phenylsulfonamide]
49.1	102	–	–	O=C(COCC1CCCN1S(=O)(=O)c1cc(Cl)sc1Cl)N1CCC(O)(c2ccc(Br)cc2)CC1 (stereo not shown) [Example 224, 1-(4-(4-bromophenyl)-4-hydroxypiperidin-1-yl)-2-((1-(2,5-dichlorothiophen-3-ylsulfonyl)pyrrolidin-2-yl)methoxy)ethanone]
104	101	–	–	COc1cc(C)c(S(=O)(=O)N(C)CCOCC(=O)N2CCC(O)(CCc3cccnc3)CC2)c(C)c1 [Example 140, N-(2-(2-(4-hydroxy-4-(2-(pyridin-3-yl)ethyl)piperidin-1-yl)-2-oxoethoxy)ethyl)-4-methoxy-N,2,6-trimethylphenylsulfonamide]
103	82.5	–	–	O=C(COC1CCN(S(=O)(=O)c2c(Cl)cc(Cl)cc2Cl)C1)N1CCC(O)(Cc2ccccc2)CC1 (stereo not shown) [Example 109, 1-(4-benzyl-4-hydroxy-piperidin-1-yl)-2-[1-(2,4,6-trichloro-phenylsulfonyl)-pyrrolidin-3-yloxy]-ethanone]
103	101	–	–	O=C(COCC1CCCCN1S(=O)(=O)c1csc2ccccc12)N1CCC(O)(c2cccnc2)CC1 (stereo not shown) [Example 273, 2-((1-(benzo[b]thiophen-3-ylsulfonyl)piperidin-2-yl)methoxy)-1-(4-hydroxy-4-(pyridin-3-yl)piperidin-1-yl)ethanone]
101	99.1	–	–	COc1cc(C)c(S(=O)(=O)N(C)CCOCC(=O)N2CCC(O)(c3cccc(C(F)(F)F)c3)CC2)c(C)c1 [Example 132, N-(2-(2-(4-hydroxy-4-(3-(trifluoromethyl)phenyl)piperidin-1-yl)-2-oxoethoxy)ethyl)-4-methoxy-N,2,6-trimethylphenylsulfonamide]
-7.27	14.4	–	–	O=C(COCC1Cc2ccccc2CN1S(=O)(=O)c1ccccc1)N1CCC(O)(c2ccccn2)CC1 (stereo not shown) [Example 73, 2-(2-phenylsulfonyl-1,2,3,4-tetrahydro-isoquinolin-3-ylmethoxy)-1-(4′-hydroxy-3′,4′,5′,6′-tetrahydro-2′H-[2,4′]bipyridinyl-1′-yl)-ethanone]
100	99	–	–	Cc1ccc2ccccc2c1S(=O)(=O)N(C)CCOCC(=O)N1CCC(O)(c2cccnc2)CC1 [Example 148, N-(2-(2-(4-hydroxy-4-(pyridin-3-yl)piperidin-1-yl)-2-oxoethoxy)ethyl)-N,2-dimethylnaphthalene-1-sulfonamide]
100	100	–	–	COc1cc(C)c(S(=O)(=O)N2CCC(COCC(=O)N3CCC(O)(c4ccc(Br)cc4)CC3)C2)c(C)c1 (stereo not shown) [Example 230, 1-(4-(4-bromophenyl)-4-hydroxypiperidin-1-yl)-2-((1-(4-methoxy-2,6-dimethylphenylsulfonyl)pyrrolidin-3-yl)methoxy)ethanone]
56.3	90.7	–	–	Cc1cc(S(=O)(=O)N(C)CCOCC(=O)N2CCC(O)(c3ccc(Cl)cc3)CC2)c(C)s1 [Example 256, N-(2-(2-(4-(4-chlorophenyl)-4-hydroxypiperidin-1-yl)-2-oxoethoxy)ethyl)-N,2,5-trimethylthiophene-3-sulfonamide]
-23.8	-7.05	–	–	O=C(COC1CCN(S(=O)(=O)c2ccc(F)cc2)C1)N1CCC(O)(c2ccccn2)CC1 (stereo not shown) [Example 58, 2-[1-(4-fluoro-phenylsulfonyl)-pyrrolidin-3-yloxy]-1-(4′-hydroxy-3′,4′,5′,6′-tetrahydro-2′H-[2,4′]bipyridinyl-1′-yl)-ethanone]
